Results on 36 compounds are retold here after patent US10562887B2, “Triazolones and tetrazolones as inhibitors of ROCK” (BRISTOL-MYERS SQUIBB COMPANY, priority 2016, dated 2020).

A value given as a limit tells only on which side of the number the result lay.

By IC50 is commonly meant the point on the concentration scale where inhibition reaches its midpoint. A higher IC50 goes with weaker potency.

ROCK2, sequence (O75116 whole entry, species assumed): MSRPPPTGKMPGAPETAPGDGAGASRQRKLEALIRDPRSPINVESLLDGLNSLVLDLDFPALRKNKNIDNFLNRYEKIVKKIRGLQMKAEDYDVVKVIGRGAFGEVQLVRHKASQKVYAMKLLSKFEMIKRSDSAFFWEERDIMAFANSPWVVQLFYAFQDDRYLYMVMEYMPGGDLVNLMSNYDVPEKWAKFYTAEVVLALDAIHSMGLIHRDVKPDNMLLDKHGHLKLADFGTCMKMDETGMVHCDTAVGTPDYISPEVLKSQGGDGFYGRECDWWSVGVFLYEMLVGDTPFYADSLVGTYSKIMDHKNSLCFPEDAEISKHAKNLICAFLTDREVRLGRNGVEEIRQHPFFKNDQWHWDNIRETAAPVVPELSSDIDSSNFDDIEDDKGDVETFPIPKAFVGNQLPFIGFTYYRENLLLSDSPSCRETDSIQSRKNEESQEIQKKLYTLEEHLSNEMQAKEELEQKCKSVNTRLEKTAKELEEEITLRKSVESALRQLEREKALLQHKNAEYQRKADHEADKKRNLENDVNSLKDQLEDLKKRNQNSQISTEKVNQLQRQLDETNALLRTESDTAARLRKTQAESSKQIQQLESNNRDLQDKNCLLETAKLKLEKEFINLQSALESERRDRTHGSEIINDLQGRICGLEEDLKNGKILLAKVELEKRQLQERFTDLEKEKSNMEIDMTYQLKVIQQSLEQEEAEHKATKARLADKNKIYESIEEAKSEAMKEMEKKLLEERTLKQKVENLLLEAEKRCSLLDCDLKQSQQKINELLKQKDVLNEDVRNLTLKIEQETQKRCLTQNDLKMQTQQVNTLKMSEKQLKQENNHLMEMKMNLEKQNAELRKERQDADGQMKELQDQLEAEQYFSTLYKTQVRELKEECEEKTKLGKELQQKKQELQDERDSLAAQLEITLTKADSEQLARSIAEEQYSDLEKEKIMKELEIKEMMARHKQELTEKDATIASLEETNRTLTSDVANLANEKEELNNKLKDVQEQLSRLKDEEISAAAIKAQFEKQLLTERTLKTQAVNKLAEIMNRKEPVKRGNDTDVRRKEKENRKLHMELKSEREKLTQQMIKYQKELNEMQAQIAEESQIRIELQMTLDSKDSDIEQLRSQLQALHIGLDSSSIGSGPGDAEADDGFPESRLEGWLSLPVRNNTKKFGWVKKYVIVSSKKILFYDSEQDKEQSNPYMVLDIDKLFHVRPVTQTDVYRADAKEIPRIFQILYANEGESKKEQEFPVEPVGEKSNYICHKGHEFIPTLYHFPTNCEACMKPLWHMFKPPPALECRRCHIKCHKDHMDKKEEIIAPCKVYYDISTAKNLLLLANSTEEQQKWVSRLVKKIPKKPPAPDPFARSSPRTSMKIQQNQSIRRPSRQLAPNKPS

This assay deals with ROCK2 (Homo sapiens (Human), UniProt O75116). The assay is described as follows: ROCK2 assay (peptide phosphorylation, LABCHIP 3000 Reader). The assay is classed as biochemical. The conditions noted are these: 5 μM ATP, 1.5 μM peptide substrate. As to the method:
The effectiveness of compounds of the present invention as ROCK inhibitors can be determined in a 30 μL, assay containing 20 mM HEPES, pH 7.5, 20 mM MgCl2, 0.015% Brij-35, 4 mM DTT, 5 μM ATP and 1.5 μM peptide substrate (FITC-AHA-AKRRRLSSLRA-OH). Compounds were dissolved in DMSO so that the final concentration of DMSO was <2%, and the reaction was initiated with Rho kinase variants. After incubation, the reaction was terminated by the addition of EDTA and the phosphorylated and non-phosphorylated peptides separated using a LABCHIP® 3000 Reader (Caliper Life Sciences). […] Compounds were tested in dose-response format, and the inhibition of kinase activity was calculated at each concentration of compound. The inhibition data were fit using a curve-fitting program to determine the IC50; i.e., the concentration of compound required to inhibit 50% of kinase activity.
Representative Examples were tested in the ROCK2 assay described above and found having ROCK2 inhibitory activity.
Consider `COc1cc(-n2ncn(Cc3cccc(F)c3)c2=O)ccc1-c1cn[nH]c1` [Example 30, 4-(3-fluorobenzyl)-1-(3-methoxy-4-(1H-pyrazol-4-yl)phenyl)-1H-1,2,4-triazol-5(4H)-one], for which the IC50 is less than 5 nM.

`COc1cc(-n2ncn(Cc3ccccc3F)c2=O)ccc1-c1cn[nH]c1` [Example 31, 4-(2-fluorobenzyl)-1-(3-methoxy-4-(1H-pyrazol-4-yl)phenyl)-1H-1,2,4-triazol-5(4H)-one] showed an IC50 of 5 to 50 nM.

In the case of `COc1cc(-n2ncn(Cc3ccccc3Cl)c2=O)ccc1-c1cn[nH]c1` [Example 32, 4-(2-chlorobenzyl)-1-(3-methoxy-4-(1H-pyrazol-4-yl)phenyl)-1H-1,2,4-triazol-5(4H)-one], the IC50 lay within 5 to 50 nM.

In turn, `O=c1n(Cc2c(F)cccc2F)cnn1-c1ccc(-c2cn[nH]c2)cc1` [Example 33, 1-(4-(1H-pyrazol-4-yl)phenyl)-4-(2,6-difluorobenzyl)-1H-1,2,4-triazol-5(4H)-one] returned an IC50 of 5 to 50 nM.

Compound `N#Cc1cccc(Cn2cnn(-c3ccc(-c4cn[nH]c4)cc3)c2=O)c1` [Example 34, 3-((1-(4-(1H-pyrazol-4-yl)phenyl)-5-oxo-1H-1,2,4-triazol-4(5H)-yl)methyl)benzonitrile] yielded an IC50 of 50 to 250 nM.

For `COc1cc(-n2ncn(Cc3cccc(C#N)c3)c2=O)ccc1-c1cn[nH]c1` [Example 35, 3-((1-(3-methoxy-4-(1H-pyrazol-4-yl)phenyl)-5-oxo-1H-1,2,4-triazol-4(5H)-yl)methyl)benzonitrile], the IC50 is 50 to 250 nM.

Turning to `COc1cc(-n2ncn(Cc3cc(F)cc(F)c3)c2=O)ccc1-c1cn[nH]c1` [Example 36, 4-(3,5-difluorobenzyl)-1-(3-methoxy-4-(1H-pyrazol-4-yl)phenyl)-1H-1,2,4-triazol-5(4H)-one], the IC50 was 5 to 50 nM.

Take `COc1cc(-n2ncn(Cc3cccc(OC(F)F)c3)c2=O)ccc1-c1cn[nH]c1` [Example 37, 4-(3-(difluoromethoxy)benzyl)-1-(3-methoxy-4-(1H-pyrazol-4-yl)phenyl)-1H-1,2,4-triazol-5(4H)-one]: the concentration for half-maximal inhibition (IC50) fell in the range of 5 to 50 nM.

With `COc1cc(-n2ncn(Cc3ccc(F)cc3)c2=O)ccc1-c1cn[nH]c1` [Example 38, 4-(4-fluorobenzyl)-1-(3-methoxy-4-(1H-pyrazol-4-yl)phenyl)-1H-1,2,4-triazol-5(4H)-one], the IC50 was in the range of 50 to 250 nM.

In the case of `COc1cc(-n2ncn(Cc3c(F)cccc3F)c2=O)ccc1-c1cn[nH]c1` [Example 39, 4-(2,6-difluorobenzyl)-1-(3-methoxy-4-(1H-pyrazol-4-yl)phenyl)-1H-1,2,4-triazol-5(4H)-one], the IC50 fell in the range of 5 to 50 nM.

`CCc1cc(-n2ncn(Cc3cc(F)cc(OC)c3)c2=O)ccc1-c1cn[nH]c1` [Example 40, 1-(3-ethyl-4-(1H-pyrazol-4-yl)phenyl)-4-(3-fluoro-5-methoxybenzyl)-1H-1,2,4-triazol-5(4H)-one] had an IC50 of 5 to 50 nM.

The compound `CCc1cc(-n2ncn(Cc3cccc(C#N)c3)c2=O)ccc1-c1cn[nH]c1` [Example 41, 3-((1-(3-ethyl-4-(1H-pyrazol-4-yl)phenyl)-5-oxo-1H-1,2,4-triazol-4(5H)-yl)methyl)benzonitrile] had an IC50 of 250 to 2000 nM.

As to `CCc1cc(-n2ncn(Cc3ccccc3F)c2=O)ccc1-c1cn[nH]c1` [Example 42, 1-(3-ethyl-4-(1H-pyrazol-4-yl)phenyl)-4-(2-fluorobenzyl)-1H-1,2,4-triazol-5(4H)-one], the IC50 lay within 250 to 2000 nM.

With `CCc1cc(-n2ncn(Cc3ccc(F)cc3)c2=O)ccc1-c1cn[nH]c1` [Example 43, 1-(3-ethyl-4-(1H-pyrazol-4-yl)phenyl)-4-(4-fluorobenzyl)-1H-1,2,4-triazol-5(4H)-one], the concentration for half-maximal inhibition (IC50) lay in the range of 250 to 2000 nM.

`CCc1cc(-n2ncn(Cc3cc(F)cc(F)c3)c2=O)ccc1-c1cn[nH]c1` [Example 44, 4-(3,5-difluorobenzyl)-1-(3-ethyl-4-(1H-pyrazol-4-yl)phenyl)-1H-1,2,4-triazol-5(4H)-one] showed an IC50 of 5 to 50 nM.

The compound `CCc1cc(-n2ncn(Cc3cccc(OC)c3)c2=O)ccc1-c1cn[nH]c1` [Example 45, 1-(3-ethyl-4-(1H-pyrazol-4-yl)phenyl)-4-(3-methoxybenzyl)-1H-1,2,4-triazol-5(4H)-one] displayed an IC50 of 5 to 50 nM.

In the case of `CCc1cc(-n2ncn(Cc3cccc(OC(F)F)c3)c2=O)ccc1-c1cn[nH]c1` [Example 46, 4-(3-(difluoromethoxy)benzyl)-1-(3-ethyl-4-(1H-pyrazol-4-yl)phenyl)-1H-1,2,4-triazol-5(4H)-one], the IC50 is 50 to 250 nM.

`COc1cc(Cn2cnn(-c3ccc(-c4cn[nH]c4)cc3)c2=O)cc(OC)c1` [Example 49, 1-(4-(1H-pyrazol-4-yl)phenyl)-4-(3,5-dimethoxybenzyl)-1H-1,2,4-triazol-5(4H)-one] yielded an IC50 of 250 to 2000 nM.

In the case of `COc1cc(Cn2cnn(-c3ccc(-c4cn[nH]c4)cc3)c2=O)ccc1F` [Example 50, 4-[(4-fluoro-3-methoxyphenyl)methyl]-1-[4-(1H-pyrazol-4-yl)phenyl]-4,5-dihydro-1H-1,2,4-triazol-5-one], the IC50 was less than 5 nM.

As to `COc1cccc(Cn2cnn(-c3ccc(-c4cn[nH]c4)cc3)c2=O)c1F` [Example 51, 1-(4-(1H-pyrazol-4-yl)phenyl)-4-(2-fluoro-3-methoxybenzyl)-1H-1,2,4-triazol-5(4H)-one], the IC50 lay within 5 to 50 nM.

`COc1ccc(F)cc1Cn1cnn(-c2ccc(-c3cn[nH]c3)cc2)c1=O` [Example 52, 1-(4-(1H-pyrazol-4-yl)phenyl)-4-(5-fluoro-2-methoxybenzyl)-1H-1,2,4-triazol-5(4H)-one] showed an IC50 of 250 to 2000 nM.

`COc1ccc(Cn2cnn(-c3ccc(-c4cn[nH]c4)cc3)c2=O)cc1F` [Example 53, 1-(4-(1H-pyrazol-4-yl)phenyl)-4-(3-fluoro-4-methoxybenzyl)-1H-1,2,4-triazol-5(4H)-one] had an IC50 of 250 to 2000 nM.

Consider `CCc1cc(-n2ncn(Cc3ccccc3)c2=O)ccc1-c1cn[nH]c1` [Example 54, 4-benzyl-1-(3-ethyl-4-(1H-pyrazol-4-yl)phenyl)-1H-1,2,4-triazol-5(4H)-one], for which the IC50 fell in the range of 50 to 250 nM.

With `CCc1cc(-n2ncn(Cc3cccc(F)c3)c2=O)ccc1-c1cn[nH]c1` [Example 55, 1-(3-ethyl-4-(1H-pyrazol-4-yl)phenyl)-4-(3-fluorobenzyl)-1H-1,2,4-triazol-5(4H)-one], the IC50 lay in the range of 5 to 50 nM.

`CCc1cc(-n2ncn(Cc3c(F)cccc3F)c2=O)ccc1-c1cn[nH]c1` [Example 57, 4-(2,6-difluorobenzyl)-1-(3-ethyl-4-(1H-pyrazol-4-yl)phenyl)-1H-1,2,4-triazol-5(4H)-one] registered an IC50 of 250 to 2000 nM.

Consider `CCc1cc(-n2ncn(C(C)c3ccccc3)c2=O)ccc1-c1cn[nH]c1` (stereo not drawn) [Example 58, 1-(3-ethyl-4-(1H-pyrazol-4-yl)phenyl)-4-(1-phenylethyl)-1H-1,2,4-triazol-5(4H)-one], for which the IC50 lay within 5 to 50 nM.

Compound `Cc1nn(Cc2ccccc2)c(=O)n1-c1ccc(-c2cn[nH]c2)cc1` [Example 59, 4-(4-(1H-pyrazol-4-yl)phenyl)-1-benzyl-3-methyl-1H-1,2,4-triazol-5(4H)-one] returned an IC50 of 250 to 2000 nM.

`COc1cc(-n2c(C)nn(Cc3ccccc3)c2=O)ccc1-c1cn[nH]c1` [Example 60, 1-benzyl-4-(3-methoxy-4-(1H-pyrazol-4-yl)phenyl)-3-methyl-1H-1,2,4-triazol-5(4H)-one] had an IC50 of 250 to 2000 nM.

`COc1cccc(Cn2nc(C)n(-c3ccc(-c4cn[nH]c4)c(OC)c3)c2=O)c1` [Example 61, 4-(3-methoxy-4-(1H-pyrazol-4-yl)phenyl)-1-(3-methoxybenzyl)-3-methyl-1H-1,2,4-triazol-5(4H)-one] gave an IC50 of 50 to 250 nM.

In turn, `COc1cc(-n2c(C)nn(C(C)c3ccccc3)c2=O)ccc1-c1cn[nH]c1` (stereo not drawn) [Example 62, 4-(3-methoxy-4-(1H-pyrazol-4-yl)phenyl)-3-methyl-1-(1-phenylethyl)-1H-1,2,4-triazol-5(4H)-one] registered an IC50 of 250 to 2000 nM.

For the compound `COc1cc(-c2cn[nH]c2)ccc1-n1c(C)nn(Cc2ccccc2)c1=O` [Example 63, 1-benzyl-4-(2-methoxy-4-(1H-pyrazol-4-yl)phenyl)-3-methyl-1H-1,2,4-triazol-5(4H)-one], the IC50 was in the range of 250 to 2000 nM.

`COc1cccc(Cn2nc(C)n(-c3ccc(-c4cn[nH]c4)cc3OC)c2=O)c1` [Example 64, 4-(2-methoxy-4-(1H-pyrazol-4-yl)phenyl)-1-(3-methoxybenzyl)-3-methyl-1H-1,2,4-triazol-5(4H)-one] displayed an IC50 of 250 to 2000 nM.

As for `COc1cc(-n2c(C)nn(Cc3cccc(F)c3)c2=O)ccc1-c1cn[nH]c1` [Example 65, 1-(3-fluorobenzyl)-4-(3-methoxy-4-(1H-pyrazol-4-yl)phenyl)-3-methyl-1H-1,2,4-triazol-5(4H)-one], the IC50 was 250 to 2000 nM.

For `COc1cc(-n2c(C)nn(CCc3ccccc3)c2=O)ccc1-c1cn[nH]c1` [Example 66, 4-(3-methoxy-4-(1H-pyrazol-4-yl)phenyl)-3-methyl-1-phenethyl-1H-1,2,4-triazol-5(4H)-one], the IC50 lay within 50 to 250 nM.

Take `Cc1nn(CCc2ccccc2)c(=O)n1-c1ccc(-c2cn[nH]c2)cc1` [Example 67, 4-(4-(1H-pyrazol-4-yl)phenyl)-3-methyl-1-phenethyl-1H-1,2,4-triazol-5(4H)-one]: the IC50 fell in the range of 250 to 2000 nM.

Consider `COc1cc(-n2c(C)nn(Cc3cc(F)ccc3F)c2=O)ccc1-c1cn[nH]c1` [Example 68, 1-(2,5-difluorobenzyl)-4-(3-methoxy-4-(1H-pyrazol-4-yl)phenyl)-3-methyl-1H-1,2,4-triazol-5(4H)-one], for which the IC50 was 250 to 2000 nM.
